In ChEMBL document CHEMBL1201862, “PubChem BioAssay data set” (2004):
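Method: 48-hour compound exposure of cells in 96-well plates, five concentrations, linear interpolation of endpoints. GI50: concentration for 50% inhibition of growth.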 Active and inactive are the calls of the source. Rule as the data show it: active = GI50 up to about 1.1 µM and inactive = higher.

Columns and labels:
Assay in all cases: inhibition of tumour cell growth, NCI panel, 48 h
HOP-62 = tested on: HOP-62
SK-OV-3 = tested on: SK-OV-3
NCI-H522 = tested on: NCI-H522
COLO 205 = tested on: COLO 205
M14 = tested on: M14
SF-295 = tested on: SF-295
A549 = tested on: A549
TK-10 = tested on: TK-10
SNB-75 = tested on: SNB-75
HCT-116 = tested on: HCT-116
UACC-257 = tested on: UACC-257
MDA-N = tested on: MDA-N
EKVX = tested on: EKVX
NCI/ADR-RES = tested on: NCI/ADR-RES
NCI-H460 = tested on: NCI-H460
786-0 = tested on: 786-0
RPMI-8226 = tested on: RPMI-8226
DU-145 = tested on: DU-145
PC-3 = tested on: PC-3
MDA-MB-435 = tested on: MDA-MB-435
HOP-92 = tested on: HOP-92
SN12C = tested on: SN12C
SNB-19 = tested on: SNB-19
BT-549 = tested on: BT-549
HT-29 = tested on: HT-29
HCC 2998 = tested on: HCC 2998
Malme-3M = tested on: Malme-3M
ACHN = tested on: ACHN
OVCAR-5 = tested on: OVCAR-5
OVCAR-4 = tested on: OVCAR-4
IGROV-1 = tested on: IGROV-1
MCF7 = tested on: MCF7
T47D = tested on: T47D
SF-539 = tested on: SF-539
SK-MEL-28 = tested on: SK-MEL-28
U-251 = tested on: U-251
OVCAR-8 = tested on: OVCAR-8
SF-268 = tested on: SF-268
UACC-62 = tested on: UACC-62
SK-MEL-2 = tested on: SK-MEL-2
OVCAR-3 = tested on: OVCAR-3
LOX IMVI = tested on: LOX IMVI
HCT-15 = tested on: HCT-15
MDA-MB-231 = tested on: MDA-MB-231
NCI-H23 = tested on: NCI-H23
NCI-H226 = tested on: NCI-H226
Hs-578T = tested on: Hs-578T
K562 = tested on: K562
RXF 393 = tested on: RXF 393
UO-31 = tested on: UO-31
SK-MEL-5 = tested on: SK-MEL-5
CAKI-1 = tested on: CAKI-1
MOLT-4 = tested on: MOLT-4
A498 = tested on: A498
KM12 = tested on: KM12
SW-620 = tested on: SW-620
CCRF-CEM = tested on: CCRF-CEM
HL-60 = tested on: HL-60
SR = tested on: SR

Measured: GI50

COc1ccc(CC(COS(=O)(=O)c2ccc(C)cc2)NS(=O)(=O)c2ccc(C)cc2)cc1 (centres undefined)
inactive: HOP-62 16.7 µM | SK-OV-3 15.2 µM | NCI-H522 7.01 µM | COLO 205 11.7 µM | M14 8.34 µM | SF-295 13.7 µM | A549 12.1 µM | TK-10 17.4 µM | SNB-75 8.91 µM | HCT-116 12.8 µM | UACC-257 15.8 µM | MDA-N 19.6 µM | EKVX 14.6 µM | NCI/ADR-RES 11 µM | NCI-H460 11.5 µM | 786-0 16 µM | RPMI-8226 15.2 µM | DU-145 10.8 µM | PC-3 14.8 µM | MDA-MB-435 13.9 µM | HOP-92 6.56 µM | SN12C 15.4 µM | SNB-19 12.6 µM | BT-549 5.71 µM | HT-29 10.2 µM | HCC 2998 11.9 µM | Malme-3M 10.7 µM | ACHN 12.3 µM | OVCAR-5 17.5 µM | OVCAR-4 20.7 µM | IGROV-1 7.87 µM | MCF7 8.24 µM | T47D 5.45 µM | SF-539 17.1 µM | SK-MEL-28 15.5 µM | U-251 11.8 µM | OVCAR-8 15.3 µM | SF-268 12.2 µM | UACC-62 6.98 µM | SK-MEL-2 15.1 µM | OVCAR-3 9.55 µM | LOX IMVI 19.5 µM | MDA-MB-231 > 53.5 µM | NCI-H23 13.7 µM | NCI-H226 7.4 µM | Hs-578T 15.6 µM | K562 43.2 µM | RXF 393 3.27 µM | UO-31 12.4 µM | SK-MEL-5 9.02 µM | CAKI-1 17.4 µM | MOLT-4 > 100 µM | A498 12.8 µM | KM12 16.9 µM | SW-620 10.9 µM
14.2 µM: HCT-15

CCCOC(=O)C1C2CCC(O2)C1C(=O)O (centres undefined)
inactive: HOP-62 > 100 µM | SK-OV-3 61 µM | NCI-H522 > 100 µM | CCRF-CEM > 100 µM | COLO 205 > 100 µM | M14 > 100 µM | SF-295 > 100 µM | A549 > 100 µM | TK-10 > 100 µM | SNB-75 36.3 µM | HCT-116 > 100 µM | UACC-257 > 100 µM | MDA-N > 100 µM | EKVX > 100 µM | NCI/ADR-RES > 100 µM | 786-0 > 100 µM | RPMI-8226 > 100 µM | DU-145 > 100 µM | PC-3 > 100 µM | MDA-MB-435 > 100 µM | HL-60 > 100 µM | SN12C > 100 µM | SNB-19 > 100 µM | BT-549 > 100 µM | HT-29 > 100 µM | Malme-3M > 100 µM | ACHN > 100 µM | OVCAR-5 > 100 µM | OVCAR-4 > 100 µM | IGROV-1 > 100 µM | MCF7 > 100 µM | T47D > 100 µM | SK-MEL-28 > 100 µM | U-251 > 100 µM | OVCAR-8 > 100 µM | SF-268 > 100 µM | UACC-62 > 100 µM | SK-MEL-2 > 100 µM | OVCAR-3 > 100 µM | LOX IMVI > 100 µM | MDA-MB-231 > 100 µM | NCI-H23 > 100 µM | NCI-H226 > 100 µM | Hs-578T > 100 µM | K562 > 100 µM | RXF 393 > 100 µM | UO-31 > 100 µM | SK-MEL-5 > 100 µM | CAKI-1 > 100 µM | SR > 100 µM | MOLT-4 > 100 µM | A498 > 100 µM | KM12 > 100 µM | SW-620 > 100 µM
> 100 µM: HCT-15

COc1cc2c(cc1OC)-c1cc3ccccc3c(=O)n1CCC2
inactive: HOP-62 12 µM | SK-OV-3 7.31 µM | NCI-H522 9.25 µM | CCRF-CEM 6.73 µM | COLO 205 8.47 µM | M14 14.8 µM | SF-295 11.1 µM | A549 8.28 µM | TK-10 16.3 µM | SNB-75 19.1 µM | HCT-116 3.94 µM | UACC-257 19.8 µM | MDA-N 3.56 µM | EKVX 21.9 µM | NCI/ADR-RES 5.27 µM | NCI-H460 1.76 µM | 786-0 6.97 µM | RPMI-8226 7.91 µM | DU-145 10.7 µM | PC-3 8.51 µM | MDA-MB-435 5.69 µM | HL-60 2.58 µM | HOP-92 15.4 µM | SN12C 13.1 µM | SNB-19 18 µM | BT-549 13.1 µM | HT-29 4.17 µM | HCC 2998 13.7 µM | Malme-3M 20 µM | ACHN 13.4 µM | OVCAR-5 45.7 µM | OVCAR-4 24.6 µM | IGROV-1 7.48 µM | MCF7 7.71 µM | T47D 17.9 µM | SF-539 2.94 µM | SK-MEL-28 17.9 µM | U-251 6.49 µM | OVCAR-8 9.35 µM | SF-268 13.3 µM | UACC-62 11.4 µM | SK-MEL-2 29.3 µM | OVCAR-3 15.9 µM | LOX IMVI 2.66 µM | MDA-MB-231 5.47 µM | NCI-H23 19.7 µM | NCI-H226 12.6 µM | Hs-578T 14.8 µM | K562 3.21 µM | RXF 393 5.02 µM | UO-31 13 µM | SK-MEL-5 11.4 µM | CAKI-1 7.85 µM | MOLT-4 1.89 µM | A498 6.62 µM | KM12 8.47 µM | SW-620 8.32 µM
2.07 µM: HCT-15

CC1COC(c2cn[nH]c2C(N)=O)C1O (centres undefined)
> 100 µM: HCT-15
inactive: HOP-62 > 100 µM | SK-OV-3 > 100 µM | NCI-H522 > 100 µM | CCRF-CEM > 100 µM | COLO 205 > 100 µM | M14 > 100 µM | SF-295 > 100 µM | A549 > 100 µM | TK-10 > 100 µM | SNB-75 > 100 µM | HCT-116 > 100 µM | UACC-257 > 100 µM | MDA-N > 100 µM | EKVX > 100 µM | NCI/ADR-RES > 100 µM | NCI-H460 > 100 µM | 786-0 > 100 µM | RPMI-8226 > 100 µM | DU-145 > 100 µM | PC-3 > 100 µM | MDA-MB-435 > 100 µM | HL-60 > 100 µM | SN12C > 100 µM | SNB-19 > 100 µM | BT-549 > 100 µM | HT-29 > 100 µM | ACHN > 100 µM | OVCAR-5 > 100 µM | OVCAR-4 > 100 µM | IGROV-1 > 100 µM | MCF7 > 100 µM | T47D > 100 µM | SF-539 > 100 µM | SK-MEL-28 > 100 µM | U-251 > 100 µM | OVCAR-8 > 100 µM | SF-268 > 100 µM | UACC-62 > 100 µM | SK-MEL-2 > 100 µM | OVCAR-3 > 100 µM | LOX IMVI > 100 µM | MDA-MB-231 > 100 µM | NCI-H23 > 100 µM | NCI-H226 > 100 µM | Hs-578T > 100 µM | K562 > 100 µM | UO-31 > 100 µM | SK-MEL-5 > 100 µM | CAKI-1 > 100 µM | SR > 100 µM | MOLT-4 > 100 µM | A498 > 100 µM | KM12 > 100 µM | SW-620 > 100 µM
